PubChem BioAssay AID488985 (Sanford-Burnham Center for Chemical Genomics, 2010)
Activity calls are given as the source filed them.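 Rule for the calls: active = mean EC50 below 10 µM; inactive = the rest.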

Target: Apelin receptor (Homo sapiens) (UniProt P35414)
Test: apelin receptor activator analogs – cell-based, luminescence, set 2, SAR follow-up (AID 488985)
Conditions: CHO-K1 AGTRL-1 PathHunter beta-arrestin

Sequence of Apelin receptor (Homo sapiens) (P35414 whole entry, looked up): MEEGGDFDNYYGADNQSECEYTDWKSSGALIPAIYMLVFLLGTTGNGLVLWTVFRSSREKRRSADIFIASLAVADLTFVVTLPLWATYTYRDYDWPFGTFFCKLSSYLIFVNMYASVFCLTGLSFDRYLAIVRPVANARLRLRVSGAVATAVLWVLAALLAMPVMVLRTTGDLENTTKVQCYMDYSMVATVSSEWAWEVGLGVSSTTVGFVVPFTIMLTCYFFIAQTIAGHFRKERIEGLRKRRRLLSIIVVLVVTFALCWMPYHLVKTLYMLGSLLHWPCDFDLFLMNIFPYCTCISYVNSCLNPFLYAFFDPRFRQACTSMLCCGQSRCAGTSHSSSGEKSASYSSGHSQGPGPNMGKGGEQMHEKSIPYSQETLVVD

SMILES	EC50
CCN1C(=O)/C(=C/C=C2/SC(c3ccccc3)=C(c3ccccc3)N2CC)SC1=S	> 79 µM (inactive)
CCN1C(=O)/C(=C/C=C2/Sc3ccccc3N2CC)SC1=S	> 79 µM (inactive)
CCCCN(C)CCn1c(=S)[nH]c2cc(OCC)c(OCC)cc2c1=O	inactive
CCN1C(c2ccccc2)=C(c2ccccc2)S/C1=C\C=C1/SC(=S)N(C)C1=O	4.42 µM
CC1=CC(=O)C(C(C)(C)C)=C/C1=N/OS(=O)(=O)c1ccccc1	4.2 µM
CC1=CC(=NOS(=O)(=O)c2ccccc2)C(C)=CC1=O	6.07 µM
CC1=C/C(=N/OS(=O)(=O)c2ccccc2)C(C(C)C)=CC1=O	11.9 µM
CCOc1ccc(S(=O)(=O)Nc2nc(-c3ccccc3)cs2)cc1	> 79 µM (inactive)
CC(C)C1=CC(=NOS(=O)(=O)c2ccccc2)C=C(C(C)C)C1=O	13.1 µM
CC1=CC(=O)C=C/C1=N/OS(=O)(=O)c1ccc(C)cc1	> 79 µM (inactive)

More lines, now with the values ahead:

EC50	SMILES
> 79 µM (inactive)	Cc1cc(C)n2nc3nc(N4CCCCC4)nc(-c4ccccc4)c3c2n1
> 79 µM (inactive)	CCc1nnc(NC(=O)CSc2nc3cccnc3n2Cc2ccccc2)s1
inactive	CCOc1cc2[nH]c(=S)n(CCCC(=O)NCc3ccccn3)c(=O)c2cc1OCC
> 79 µM (inactive)	CCOc1cc2[nH]c(=S)n(CCN3CCC(C)CC3)c(=O)c2cc1OCC
inactive	CCc1nnc(NC(=O)CSc2nc3cccnc3n2C2CCCCC2)s1
> 79 µM (inactive)	Cc1cc(O)c(C2CCCCC2)cc1N=O
inactive	CCOc1cc2[nH]c(=S)n(CCN3CCCCC3CC)c(=O)c2cc1OCC (configuration not stated)
